In US8501722B2, “Methods and compositions for treating bacterial infection” (priority 2009, dated 2013):
Where “and” joins values, the source holds several entries; their conditions need not be identical. Equal entries are not always repeated. Where two headings read alike, the source gives them in different places.

Key:
[1] = tested on: SK(+)GAS; test: GAS growth by OD600 nm of culture; type: cell-based, Group A Streptococcus; settings: Streptococcus; for activity at 5 µg/mL: read-out: GAS Growth (% control), compound conc. 5 μg/ml; for activity at 10 µg/mL: read-out: GAS Growth (% control), compound conc. 10 μg/ml; for activity at 20 µg/mL: read-out: GAS Growth (% control), compound conc. 20 μg/ml; for activity at 30 µg/mL: read-out: GAS Growth (% control), compound conc. 30 μg/ml; for activity at 40 µg/mL: read-out: GAS Growth (% control), compound conc. 40 μg/ml; for activity at 50 µg/mL: read-out: GAS Growth (% control), compound conc. 50 μg/ml; for activity at 60 µg/mL: read-out: GAS Growth (% control), compound conc. 60 μg/ml; for activity at 70 µg/mL: read-out: GAS Growth (% control), compound conc. 70 μg/ml; for activity at 0.1 µg/mL: read-out: GAS Growth (% control), compound conc. 0.1 μg/ml; for activity at 0.3 µg/mL: read-out: GAS Growth (% control), compound conc. 0.3 μg/ml; for activity at 2.5 µg/mL: read-out: GAS Growth (% control), compound conc. 2.5 μg/ml
[2] = tested on: streptokinase (SK)
Protocol: SK− Ecoli and SKCtr1's dose response relationship with these compounds were then examined.
The effects of 10 hit compounds out of the 23 identified were further tested by dose response assays. […] These compounds were tested for inhibition of ska expression by measuring SK activity in supernatants of GAS exposed to the test compound or control vehicle alone (DMSO). SK(+)GAS were cultured with hit compounds at a dose range of 10 nM to 100 μM at 37° C. for 16-20 hours. Supernatants of SK(+)GAS cultures were measured for SK activity using chromogenic substrate 2403 (Diapharma group Inc., West Chester, Ohio), according to the manufacturer's instruction and simultaneously monitored for nonspecific effects on GAS growth by measuring OD600 nm.
The positive compounds identified in dose response assays are subjected to SK assay to identify compounds inhibiting SK expression in SK(+)GAS. Briefly, SK(+)GAS is grown at the presence of hit compounds at a dose range determined by dose response assays within which SK(−) GAS growth is inhibited less than 10% while SKKanGAS growth is inhibited more than 50% under 20 μg/ml kanamycin.

C=CCn1c(SCC)nc2c(c1=O)C(C)(C)Cc1ccccc1-2 [1S-26137]
activity at 5 µg/mL [1]: 89% | activity at 10 µg/mL [1]: 89% | activity at 20 µg/mL [1]: 91% | activity at 30 µg/mL [1]: 105% | activity at 40 µg/mL [1]: 98% | SK Expression (% control) ([2]; compound conc. 5 μg/ml): 21 % control | SK Expression (% control) ([2]; compound conc. 10 μg/ml): 20 % control | SK Expression (% control) ([2]; compound conc. 20 μg/ml): 22 % control | SK Expression (% control) ([2]; compound conc. 40 μg/ml): 19 % control

C=CCn1c(SCC(=O)OCC)nc2c(c1=O)C(C)(C)Cc1ccccc1-2 [1S-30398]
activity at 5 µg/mL [1]: 98% | activity at 10 µg/mL [1]: 98% | activity at 20 µg/mL [1]: 99% | activity at 40 µg/mL [1]: 111% | SK Expression (% control) ([2]; compound conc. 5 μg/ml): 42 % control | SK Expression (% control) ([2]; compound conc. 10 μg/ml): 36 % control | SK Expression (% control) ([2]; compound conc. 20 μg/ml): 38 % control | SK Expression (% control) ([2]; compound conc. 40 μg/ml): 39 % control

CCn1c(SCc2ccccc2)nc2c(c1=O)C1(CCCC1)Cc1ccccc1-2 [AK968]
activity at 10 µg/mL [1]: 96% | activity at 20 µg/mL [1]: 105% | activity at 30 µg/mL [1]: 112% | activity at 40 µg/mL [1]: 117% | activity at 50 µg/mL [1]: 124% | activity at 60 µg/mL [1]: 123% | activity at 70 µg/mL [1]: 130% | SK Expression (% control) ([2]; compound conc. 10 μg/ml): 83 % control | SK Expression (% control) ([2]; compound conc. 20 μg/ml): 64 % control | SK Expression (% control) ([2]; compound conc. 30 μg/ml): 57 % control | SK Expression (% control) ([2]; compound conc. 40 μg/ml): 54 % control | SK Expression (% control) ([2]; compound conc. 50 μg/ml): 40 % control | SK Expression (% control) ([2]; compound conc. 60 μg/ml): 33 % control | SK Expression (% control) ([2]; compound conc. 70 μg/ml): 45 % control

C=CCn1c(SCc2ccc(OC)cc2)nc2c(c1=O)C1(CCCCC1)Cc1ccccc1-2 [CCG-102483, 3-allyl-2-(4-methoxybenzylthio)-3H-spiro[benzo[h]quinazoline-5,1′-cyclohexan]-4(6H)-one]
activity at 5 µg/mL [1]: 104% | activity at 40 µg/mL [1]: 115% | SK Expression (% control) ([2]; compound conc. 5 μg/ml): 119 % control | SK Expression (% control) ([2]; compound conc. 40 μg/ml): 80 % control

C=CCn1c(SCc2cccc(OC)c2)nc2c(c1=O)C1(CCCCC1)Cc1ccccc1-2 [CCG-102485, 3-allyl-2-(3-methoxybenzylthio)-3H-spiro[benzo[h]quinazoline-5,1′-cyclohexan]-4(6H)-one]
activity at 5 µg/mL [1]: 102% | activity at 40 µg/mL [1]: 104% | SK Expression (% control) ([2]; compound conc. 5 μg/ml): 81 % control | SK Expression (% control) ([2]; compound conc. 40 μg/ml): 91 % control

C=CCn1c(SCCc2ccc(OC)cc2)nc2c(c1=O)C1(CCCCC1)Cc1ccccc1-2 [CCG-102489, 3-allyl-2-(4-methoxyphenethylthio)-3H-spiro[benzo[h]quinazoline-5,1′-cyclohexan]-4(6H)-one]
activity at 5 µg/mL [1]: 106% | activity at 40 µg/mL [1]: 114% | SK Expression (% control) ([2]; compound conc. 5 μg/ml): 91 % control | SK Expression (% control) ([2]; compound conc. 40 μg/ml): 79 % control

C=CCn1c(SCc2ccc(NC(C)=O)cc2)nc2c(c1=O)C1(CCCCC1)Cc1ccccc1-2 [CCG-102491, N-(4-((3-allyl-4-oxo-4,6-dihydro-3H-spiro[benzo[h]quinazoline-5,1′-cyclohexane]-2-ylthio)methyl)phenyl)acetamide]
activity at 5 µg/mL [1]: 109% | activity at 40 µg/mL [1]: 112% | SK Expression (% control) ([2]; compound conc. 5 μg/ml): 85 % control | SK Expression (% control) ([2]; compound conc. 40 μg/ml): 96 % control

C=CCn1c(SCCOC)nc2c(c1=O)C1(CCCCC1)Cc1ccccc1-2 [CCG-102493, 3-allyl-2-(2-methoxyethylthio)-3H-spiro[benzo[h]quinazoline-5,1′-cyclohexan]-4(6H)-one]
activity at 0.1 µg/mL [1]: 99% | activity at 0.3 µg/mL [1]: 103% | activity at 2.5 µg/mL [1]: 93% | activity at 5 µg/mL [1]: 92% | activity at 10 µg/mL [1]: 94% | activity at 30 µg/mL [1]: 110% | activity at 50 µg/mL [1]: 123% | activity at 60 µg/mL [1]: 125% | activity at 70 µg/mL [1]: 129% | SK Expression (% control) ([2]; compound conc. 0.1 μg/ml): 75 % control | SK Expression (% control) ([2]; compound conc. 0.3 μg/ml): 98 % control | SK Expression (% control) ([2]; compound conc. 1.0 μg/ml): 54 % control | SK Expression (% control) ([2]; compound conc. 2.5 μg/ml): 101 % control | SK Expression (% control) ([2]; compound conc. 3 μg/ml): 51 % control | SK Expression (% control) ([2]; compound conc. 5 μg/ml): 98 % control and 50 % control | SK Expression (% control) ([2]; compound conc. 30 μg/ml): 64 % control and 42 % control | SK Expression (% control) ([2]; compound conc. 50 μg/ml): 49 % control | SK Expression (% control) ([2]; compound conc. 60 μg/ml): 52 % control and 27 % control | SK Expression (% control) ([2]; compound conc. 70 μg/ml): 52 % control

C=CCn1c(SCCN(C)C)nc2c(c1=O)C1(CCCCC1)Cc1ccccc1-2 [CCG-102495, 3-allyl-2-(2-(dimethylamino)ethylthio)-3H-spiro[benzo[h]quinazoline-5,1′-cyclohexan]-4(6H)-one]
activity at 20 µg/mL [1]: 18% | SK Expression (% control) ([2]; compound conc. 20 μg/ml): 17 % control

C=CCn1c(SC)nc2c(c1=O)C1(CCCCC1)Cc1ccccc1-2 [CCG-102620, 3-Allyl-2-(methylthio)-3H-spiro[benzo[h]quinazoline-5,1′-cyclohexan]-4(6H)-one]
activity at 5 µg/mL [1]: 104% | activity at 10 µg/mL [1]: 106% | activity at 20 µg/mL [1]: 104% | activity at 40 µg/mL [1]: 115% | SK Expression (% control) ([2]; compound conc. 5 μg/ml): 62 % control | SK Expression (% control) ([2]; compound conc. 10 μg/ml): 50 % control | SK Expression (% control) ([2]; compound conc. 20 μg/ml): 33 % control | SK Expression (% control) ([2]; compound conc. 40 μg/ml): 27 % control

C=CCn1c(OCC)nc2c(c1=O)C1(CCCCC1)Cc1ccccc1-2 [CCG-102622, 3-Allyl-2-ethoxy-3H-spiro[benzo[h]quinazoline-5,1′-cyclohexan]-4(6H)-one]
activity at 5 µg/mL [1]: 99% | activity at 10 µg/mL [1]: 100% | activity at 20 µg/mL [1]: 103% | activity at 40 µg/mL [1]: 113% | SK Expression (% control) ([2]; compound conc. 5 μg/ml): 43 % control | SK Expression (% control) ([2]; compound conc. 10 μg/ml): 41 % control | SK Expression (% control) ([2]; compound conc. 20 μg/ml): 38 % control | SK Expression (% control) ([2]; compound conc. 40 μg/ml): 23 % control

C=CCn1c(SCCOC)nc2c(c1=O)C(C)(C)Cc1ccccc1-2 [CCG-102624, 3-Allyl-2-(2-methoxyethylthio)-5,5-dimethyl-5,6-dihydrobenzo[h]quinazolin-4(3H)-one]
activity at 0.1 µg/mL [1]: 100% | activity at 0.3 µg/mL [1]: 98% | activity at 2.5 µg/mL [1]: 101% | activity at 5 µg/mL [1]: 93% | activity at 10 µg/mL [1]: 94% | activity at 20 µg/mL [1]: 93% | activity at 40 µg/mL [1]: 87% | activity at 70 µg/mL [1]: 113% | SK Expression (% control) ([2]; compound conc. 0.1 μg/ml): 90 % control | SK Expression (% control) ([2]; compound conc. 0.3 μg/ml): 97 % control | SK Expression (% control) ([2]; compound conc. 1.0 μg/ml): 79 % control | SK Expression (% control) ([2]; compound conc. 3 μg/ml): 35 % control | SK Expression (% control) ([2]; compound conc. 5 μg/ml): 30 % control | SK Expression (% control) ([2]; compound conc. 10 μg/ml): 33 % control and 29 % control | SK Expression (% control) ([2]; compound conc. 20 μg/ml): 30 % control | SK Expression (% control) ([2]; compound conc. 30 μg/ml): 26 % control | SK Expression (% control) ([2]; compound conc. 40 μg/ml): 23 % control | SK Expression (% control) ([2]; compound conc. 60 μg/ml): 28 % control

C=CCn1c(SCC(N)=O)nc2c(c1=O)C(C)(C)Cc1ccccc1-2 [CCG-203037, 2-(3-Allyl-5,5-dimethyl-4-oxo-3,4,5,6-tetrahydrobenzo[h]quinazolin-2-ylthio)acetamide]
activity at 0.1 µg/mL [1]: 98% | activity at 0.3 µg/mL [1]: 99% | activity at 2.5 µg/mL [1]: 101% | activity at 5 µg/mL [1]: 102% | activity at 20 µg/mL [1]: 105% | activity at 40 µg/mL [1]: 102% | activity at 70 µg/mL [1]: 106% | SK Expression (% control) ([2]; compound conc. 0.1 μg/ml): 96 % control | SK Expression (% control) ([2]; compound conc. 0.3 μg/ml): 97 % control | SK Expression (% control) ([2]; compound conc. 1.0 μg/ml): 96 % control | SK Expression (% control) ([2]; compound conc. 3 μg/ml): 94 % control | SK Expression (% control) ([2]; compound conc. 10 μg/ml): 92 % control | SK Expression (% control) ([2]; compound conc. 30 μg/ml): 79 % control | SK Expression (% control) ([2]; compound conc. 60 μg/ml): 38 % control
